According to paper PMC6049504 (RNA, 2018):

Tests used:
Experiment in all cases: biochemical
[1] = molecular target: TkTrm10 (Thermococcus kodakarensis, UniProt Q5JD38, D206A/D245A)
[2] = molecular target: TkTrm10 (Thermococcus kodakarensis, UniProt Q5JD38, D206L)
[3] = molecular target: TkTrm10 (Thermococcus kodakarensis, UniProt Q5JD38)
[4] = molecular target: TkTrm10 (Thermococcus kodakarensis, UniProt Q5JD38, D206N/D245N)
Sequence of TkTrm10 (Thermococcus kodakarensis, UniProt Q5JD38, D206N/D245N) (Q5JD38 whole entry D206N/D245N): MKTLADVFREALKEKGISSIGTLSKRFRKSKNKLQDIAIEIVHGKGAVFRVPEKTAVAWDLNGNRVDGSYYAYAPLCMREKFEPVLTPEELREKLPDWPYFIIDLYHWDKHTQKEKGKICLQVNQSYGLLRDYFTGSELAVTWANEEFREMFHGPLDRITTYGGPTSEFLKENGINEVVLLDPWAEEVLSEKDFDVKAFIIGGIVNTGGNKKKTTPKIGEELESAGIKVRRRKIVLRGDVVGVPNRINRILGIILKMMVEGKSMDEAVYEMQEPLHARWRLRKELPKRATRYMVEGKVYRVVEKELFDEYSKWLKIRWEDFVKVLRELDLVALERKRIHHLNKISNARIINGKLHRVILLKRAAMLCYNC

Sequence of TkTrm10 (Thermococcus kodakarensis, UniProt Q5JD38, D206L) (Q5JD38 whole entry D206L): as the sequence (Q5JD38 whole entry D206N/D245N) above, with N206L, N245D counted along it
Sequence of TkTrm10 (Thermococcus kodakarensis, UniProt Q5JD38) (Q5JD38 whole entry): as the sequence (Q5JD38 whole entry D206N/D245N) above, with N206D, N245D counted along it
Sequence of TkTrm10 (Thermococcus kodakarensis, UniProt Q5JD38, D206A/D245A) (Q5JD38 whole entry D206A/D245A): as the sequence (Q5JD38 whole entry D206N/D245N) above, with N206A, N245A counted along it

Kd [1]: 20.4 ± 2.9 µM | Kd [2]: 68 ± 19 µM | Kd [3]: 9.4 ± 1.2 µM | Kd [4]: 19.3 ± 3.4 µM
Compound: C[S+](CC[C@H](N)C(=O)O)C[C@H]1O[C@@H](n2cnc3c(N)ncnc32)[C@H](O)[C@@H]1O (stereo partly shown) [SAM]
